Measured values published in publication PMC8121805, “Discovery of first-in-class inhibitors of ASH1L histone methyltransferase with anti-leukemic activity” (Nature Communications, 2021).
“Also recorded” adds a separate entry of the source.

How the values were obtained:
[1] = target: T1, ASH1L SET domain (Homo sapiens, UniProt Q9NR48); experiment: NMR titration (1H-15N TROSY-HSQC); format: binding; details: linear chemical shift perturbations up to 1 mM
T1 construct: ASH1L SET domain (amino acids 2069–2288) was expressed and purified; Mocr (N, cleaved yes); made in house; host or cells: E. coli BL21(DE3)

[2] = target: T2, ASH1L S2259M (Homo sapiens, UniProt Q9NR48, S2264M); experiment: NMR binding to S2259M mutant; details: NMR chemical shift perturbations
T2 construct: ASH1L SET domain (2069–2288) in the buffer; made in house
Procedure: For fragment screening, we used an in-house library of 1600 fragment-like compounds with the following properties: average Mw = 183 Da (range of 84–345 Da), mean clogP = 1.5 (from −2.5 to 3.7), hydrogen bond acceptors: from 0 to 6 (median = 3), hydrogen bond donors: 0 to 3 (median = 1).
Supplementary Figure 2. Binding of ASH1L inhibitors. (a) Superposition of the H- N TROSY-HSQC spectra of 100 µM ASH1L SET with 5% DMSO (black) or with 1 mM of compound 1 (red). Most perturbed residues are marked in boxes. (b) Superposition of the crystal structure of ASH1L SET domain (4YNM in PDB) and S2259M mutant of ASH1L (4YNP in PDB). (c) Superposition of the 1H-15N TROSY-HSQC spectra of 100 µM ASH1L S2259M mutant

For `NC(=S)c1cccc(-n2cccc2)c1` [compound 1], the Kd [1] was over 1000 µM and the “binding to ASH1L S2259M mutant” value [2] was “no binding; also recorded: not bind to the S2259M mutant”.
